# Experiments:
# [1] = tested on: Cas9 expressing U-251, LN-229, T98G, and LN-18 cells; assay: colony formation assay (crystal violet); assay type: cell-based, human; details: all four tested GBM cell lines, two weeks
# Description: Because recurrent tumors develop from cells that escape treatment, either by avoiding exposure, tolerating the effects, or developing resistance, colony formation assays were performed to evaluate the robustness of CRISPR-Cas genome shredding in eliminating target cells.
# TMZ-resistant LN-229 cell lines were isolated to determine which types of treatments could overcome such resistance. Cas9 expressing U-251, LN-229, T98G, and LN-18 cells were stably transduced with lentiviral vectors expressing sgNT-1/2 or sgCIDE-1/2/3/6/8/10 (Table 2), and seeded at 100, 1,000, and 10,000 cells per 6-well plate. Control cells were treated with DMSO or TMZ (50 μM).
# [2] = tested on: Cas9 expressing U-251 and LN-229; assay: comet assay (genomic fragmentation); assay type: cell-based, human; details: 24 hours post-transduction, compared to sgNT-1/2/3
# From the text: To look at the genomic effects of repetitive loci targeting, DNA from lysed targeted cells was separated on agarose-coated slides.
# [3] = tested on: Cas9 expressing U-251, LN-229, T98G, and LN-18 glioblastoma cells; assay: cell cycle analysis (PI staining, flow cytometry); assay type: cell-based, human; details: one to five days; TMZ 50 μM or 100 μM
# Description: The effects of genome shredding on cell cycle progression were then assessed. Cells were treated with TMZ or sgCIDEs for one to five days and then stained with PI after fixation for analysis by flow cytometry. […] Increases of the Sub-G1 population was more prominent in TP53-mutant U-251 cells compared LN-229 with wild-type TP53, consistent with previous observations that TP53 status affects resolution of the G2/M arrest.
# HEK293T and HAP1 cells = assay: mammalian competitive proliferation assay, cells expressing Cas9 WT; assay type: cell-based, human; details: WT Cas9, eight-day assay period
# From the text: (§1) For assessment of CRISPR-Cas programmed cell depletion using guide RNAs targeting an essential gene (RPA1) or sgCIDEs targeting hundreds of thousands of loci within the genome, cells were stably transduced with a lentiviral vector expressing Cas9-wt (pCF226) or ProCas9Flavi (pCF730) and selected on puromycin. Subsequently, these cell lines were further stably transduced with vectors expressing various mCherry-tagged sgRNAs and analyzed as follows: 1) After mixing sgRNA expressing populations with parental cells, the fraction of mCherry-positive cells was quantified over time. Different sgRNAs targeting a neutral gene (sgOR2B6), an essential gene (sgRPA1), >100,000 genomic loci (sgCIDE) and a non-targeting control (sgNT) were compared. 2) Alternatively, the cell lines were partially transduced with lentiviral vectors expressing a GFP-tagged dTEV (pCF736) or WNV (pCF738) protease, and cell depletion quantified by flow cytometry. Depletion of protease-expressing (GFP+) cells was quantified among the sgRNA-positive (mCherry+) population.
# The effect of guide RNA expression on cell viability was assessed using a competitive proliferation assay in which cells expressing a specific sgRNA were mixed with parental cells expressing only Cas9 WT, and the mCherry-positive population was followed over time. […] Guide RNAs targeting the essential RPA1 gene depleted over the eight-day assay period.
# [4] = tested on: U-251, LN-229, T98G and LN-18 glioblastoma cells; assay: luminescence-based quantification of cell viability; design: species or system human; details: over five days
# Description: To investigate the speed of cell elimination by either method, Cas9 expressing TMZ-sensitive U-251 and LN-229, and TMZ-resistant T98G and LN-18, glioblastoma cells were treated with TMZ or these cells were transduced with lentiviral vectors expressing sgCIDEs.
# [5] = tested on: HEK293T and HAP1 cells expressing ProCas9Flavi; assay: competitive proliferation assay, cells expressing ProCas9Flavi; assay type: cell-based, human
# From the text: as §1
# Cas-induced death by editing or ‘CIDE, as an output constrains the performance of ProCas9. The system remains off to minimize genomic damage yet is vigilant to respond to a stimulus. To develop this protease-induced altruistic defense platform, stable expression of the best CIDE guide RNAs (sgCIDE-2, sgCIDE-4) was assessed in conjunction with a genomically integrated ProCas9Flavi cassette to determine cell viability in the absence of a stimulus (FIG. 5B). […] Induction of this stably integrated altruistic defense system was then tested by Flavivirus proteases.
# [6] = tested on: GFP or RFP expression in E. coli MG1655; assay: E. coli CRISPRi GFP/RFP repression assay; assay type: cell-based; details: 7-amino acid TEV cleavage site (ENLYFQ/S) as linker; active TEV vs dTEV
# Description: Assays were performed using methods like those described by Oakes et al. (2016).
# Endpoint Assay: Cells were picked in biological triplicate into 96 well plates containing 500 μL EZ MOPS plus Carb and CM. Plates were grown in 37° C. shakers for twelve hours. Next, cells were diluted 1:1000 in 500 μL EZ MOPS plus Carb, CM, IPTG and aTc. Two hundred nM aTc was used to induce Cas9-CPs or ProCas9s and 50 μM IPTG levels was used to induce the proteases in a 2 mL deep well blocks and shaken at 750 rpm at 37° C. After an eight-twelve-hour induction and growth period, 20 μL of cells were added to 80 μL of water and put into a 96-well microplate reader (Tecan M1000) at 37° C. and read immediately. Each well was measured for optical density at 600 nm and GFP or RFP fluorescence. GFP expression was normalized by dividing it with OD600. In the case of the time course assays, 150 μL of the 1:1000 dilution was used and placed into a black walled clear bottom plate (3631-Corning) and directly into the Tecan M1000 for a 130× 600 s kinetic cycle of reading. For E. coli single cell analysis, cells from the endpoint time course were run on a Sony SH800 to capture 100,000 events per sample.
Molecule,effect on colony count [1],comet tails (genomic fragmentation) [2],cell cycle profile [3],depletion of the mCherry-positive population (HEK293T and HAP1 cells),lethality (cell viability) [4],"cell depletion with protease ([5]; ProCas9Flavi cells, WNV protease vs dTEV)",cell depletion in the absence of a stimulus ([5]; genomically integrated ProCas9Flavi),GFP repression activity with TEV protease [6]
"sgCIDE-1: guide RNA TGTAATCCCAGCACTTTGGG (SEQ ID NO:1), targets repetitive genomic sites (chemistry not given here)",over three log-scales reduction in colony count,very long tails,rapid increase of the Sub-G1 population starting at day one post-transduction,rapid elimination of the mCherry-positive population,viral titer-dependent lethality in all four tested glioblastoma cell lines,,,
sgCIDE-2: guide RNA TCCCAAAGTGCTGGGATTAC (SEQ ID NO:2) (chemistry not given here),over three log-scales reduction in colony count,very long tails,rapid increase of the Sub-G1 population starting at day one post-transduction,rapid elimination of the mCherry-positive population,viral titer-dependent lethality in all four tested glioblastoma cell lines,specific cell depletion,only minimal amounts of cell depletion,
sgCIDE-3: guide RNA GCCTGTAATCCCAGCACTTT (SEQ ID NO:3) (chemistry not fully specified),over three log-scales reduction in colony count,very long tails,rapid increase of the Sub-G1 population starting at day one post-transduction,,viral titer-dependent lethality in all four tested glioblastoma cell lines,,,
"CP199: Cas9 circular permutant, new start site aa 199 (SEQ ID NO:44); linker varies by experiment (protein) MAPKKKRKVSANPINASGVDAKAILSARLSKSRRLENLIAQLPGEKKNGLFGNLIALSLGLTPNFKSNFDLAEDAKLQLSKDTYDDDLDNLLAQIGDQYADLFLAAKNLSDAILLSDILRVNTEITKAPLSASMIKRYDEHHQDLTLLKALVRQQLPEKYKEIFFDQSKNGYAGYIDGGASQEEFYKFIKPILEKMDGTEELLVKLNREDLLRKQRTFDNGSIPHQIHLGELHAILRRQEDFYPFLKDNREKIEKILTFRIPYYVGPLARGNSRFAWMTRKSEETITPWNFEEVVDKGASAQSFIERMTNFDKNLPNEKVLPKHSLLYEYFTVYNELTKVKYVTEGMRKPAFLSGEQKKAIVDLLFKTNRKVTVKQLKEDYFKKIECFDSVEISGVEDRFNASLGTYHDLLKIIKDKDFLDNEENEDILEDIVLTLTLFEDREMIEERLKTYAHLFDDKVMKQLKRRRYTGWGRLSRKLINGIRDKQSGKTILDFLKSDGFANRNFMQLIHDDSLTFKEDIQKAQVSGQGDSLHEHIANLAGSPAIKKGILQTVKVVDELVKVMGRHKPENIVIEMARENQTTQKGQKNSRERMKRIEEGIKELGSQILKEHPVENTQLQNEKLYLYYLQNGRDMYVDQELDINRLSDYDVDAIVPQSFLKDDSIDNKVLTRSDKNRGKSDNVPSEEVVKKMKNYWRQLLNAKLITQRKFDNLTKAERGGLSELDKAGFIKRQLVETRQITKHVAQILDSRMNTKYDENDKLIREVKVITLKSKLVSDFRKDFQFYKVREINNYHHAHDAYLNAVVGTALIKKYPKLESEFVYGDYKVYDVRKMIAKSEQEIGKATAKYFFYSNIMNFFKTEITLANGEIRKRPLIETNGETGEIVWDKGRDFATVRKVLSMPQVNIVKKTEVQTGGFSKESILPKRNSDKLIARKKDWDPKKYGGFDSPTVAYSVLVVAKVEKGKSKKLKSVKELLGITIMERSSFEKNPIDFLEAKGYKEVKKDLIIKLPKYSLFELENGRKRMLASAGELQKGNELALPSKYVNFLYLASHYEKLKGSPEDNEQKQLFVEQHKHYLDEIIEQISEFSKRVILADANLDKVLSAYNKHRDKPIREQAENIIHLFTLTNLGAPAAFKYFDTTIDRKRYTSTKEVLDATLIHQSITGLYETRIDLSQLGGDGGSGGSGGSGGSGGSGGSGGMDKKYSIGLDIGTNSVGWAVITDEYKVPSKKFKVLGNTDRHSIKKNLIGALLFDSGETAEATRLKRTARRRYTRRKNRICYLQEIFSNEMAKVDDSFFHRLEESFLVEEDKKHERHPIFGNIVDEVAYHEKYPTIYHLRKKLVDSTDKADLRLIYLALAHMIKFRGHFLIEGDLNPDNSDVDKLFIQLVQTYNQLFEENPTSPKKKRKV",,,,,,,,switched from completely off to fully on

# Source: patent US20230043813A1, “METHODS FOR TARGETED CELL DEPLETION” (The Regents of the University of California, priority 2019, published 2023)
